Test results: patent US6825197B2, “Cyclic GMP-specific phosphodiesterase inhibitors” (Lilly ICOS LLC, priority 2000, dated 2004)
pIC50: −log10 of the molar value.

Assays:
[1] = molecular target: T1, recombinant human PDE5 (Homo sapiens, UniProt O76074); assay: Inhibitory effect on cGMP-PDE (PDE5 inhibition, one-step assay); format: biochemical; conditions: in vitro test; human recombinant PDE5, 0.15 μM 8-[H3]-cGMP, 30 minutes incubation; read-out: IC50 values versus PDE5
T1 construct: host or cells: Saccharomyces cerevisiae strain BJ2-54 (ATCC 74465), described as an exemplary method
Procedure: The compounds of structural formula (I) were tested for an ability to inhibit PDE5. The ability of a compound to inhibit PDE5 activity is related to the IC50 value for the compound, i.e., the concentration of inhibitor required for 50% inhibition of enzyme activity. The IC50 value for compounds of structural formula (I) were determined using recombinant human PDE5.
The production of recombinant human PDEs and the IC50 determinations can be accomplished by well-known methods in the art. Exemplary methods are described as follows:
Phosphodiesterase activity of the preparations was determined as follows. PDE assays utilizing a charcoal separation technique were performed essentially as described in Loughney et al. (1996). […] The [32P]5′-AMP or [32P]5′-GMP then was quantitatively converted to free [32P] phosphate and unlabeled adenosine or guanosine by the action of snake venom 5′-nucleotidase. […] PDE enzyme was present in quantities that yield <30% total hydrolysis of substrate (linear assay conditions). […] After centrifugation (750×g for 3 minutes) to sediment the charcoal, a sample of the supernatant was taken for radioactivity determination in a scintillation counter and the PDE activity was calculated.
cGMP-PDE activity of compounds of the present invention was measured using a one-step assay adapted from Wells et al., Biochim. […]

Row | Compound | pIC50 [1] | melting point [°C]
1 | O=C1[C@H]2Cc3c([nH]c4ccccc34)[C@@H](c3ccc4c(c3)OCO4)N2C(=O)C2CNCCN12 (mixture of isomers) [Example 1, (5aR,12R)-12-Benzo(1,3)dioxol-5-yl-5,5a,8,9,10,10a,12,13-octahydro-7H-6a,9,11a,13-tetraza-indeno[1,2-b]anthracene-6,11-dione] | 8.77 | 226 to 237
2 | COc1ccc(CC(=O)N2CCN3C(=O)[C@H]4Cc5c([nH]c6ccccc56)[C@@H](c5ccc6c(c5)OCO6)N4C(=O)C3C2)cc1OC (stereo partly drawn) [Example 3, (5aR,12R)-12-Benzo(1,3)dioxol-5-yl-9-[2-(3,4-dimethoxyphenyl)ethanoyl]-5,5a,8,9, 10, 10a,12,13-octahydro-7H-6a,9,11a,13-tetraaza-indeno[1,2-b]anthracene-6,11-dione] | 8.41 | 284 to 289
